Laboratory results taken from ChEMBL document CHEMBL4725424, “The Resurrection of Phenotypic Drug Discovery” (ACS Med Chem Lett, 2020).

Legend:
[1] = Inhibition of CDK8/cyclinD3 (unknown origin); design: species or system Homo sapiens
[2] = species: Homo sapiens; experiment: Selectivity index, ratio of IC50 for inhibition of CDK4/cyclinD (unknown origin) to IC50 for inhibition of CDK9/cyclinT1 (unknown origin)
[3] = target: T1, Cyclin-dependent kinase 5/CDK5 activator 1 (Homo sapiens, UniProt Q00535); experiment: Inhibition of CDK5/p35 (unknown origin); format: protein-complex assay
T1 sequence (Q00535 whole entry): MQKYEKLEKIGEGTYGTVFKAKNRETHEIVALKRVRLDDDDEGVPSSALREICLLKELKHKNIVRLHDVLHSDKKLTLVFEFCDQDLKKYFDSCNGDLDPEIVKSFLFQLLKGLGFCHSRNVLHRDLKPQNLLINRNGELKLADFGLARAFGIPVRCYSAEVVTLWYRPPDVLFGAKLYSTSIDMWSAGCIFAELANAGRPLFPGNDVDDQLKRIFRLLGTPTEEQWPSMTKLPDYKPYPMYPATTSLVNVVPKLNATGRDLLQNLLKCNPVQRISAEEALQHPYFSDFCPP
T1 sequence (Q15078 whole entry, further chain): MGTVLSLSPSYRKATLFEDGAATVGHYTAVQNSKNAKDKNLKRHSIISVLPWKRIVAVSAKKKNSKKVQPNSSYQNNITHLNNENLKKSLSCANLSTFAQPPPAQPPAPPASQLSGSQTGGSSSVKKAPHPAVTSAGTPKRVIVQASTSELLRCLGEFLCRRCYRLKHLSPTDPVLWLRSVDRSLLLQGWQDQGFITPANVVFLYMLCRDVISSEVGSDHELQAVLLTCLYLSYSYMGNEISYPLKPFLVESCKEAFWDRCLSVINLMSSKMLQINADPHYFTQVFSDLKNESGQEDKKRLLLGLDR

[4] = target: T1, Cyclin-dependent kinase 5/CDK5 activator 1; experiment: Inhibition of CDK5/p25 (unknown origin); format: protein-complex assay
[5] = target: Cyclin-dependent kinase 4/cyclin D1 (Homo sapiens, UniProt P11802); experiment: Inhibition of CDK4/cyclinD (unknown origin); format: protein-complex assay
Chain of Cyclin-dependent kinase 4/cyclin D1 (P11802 whole entry): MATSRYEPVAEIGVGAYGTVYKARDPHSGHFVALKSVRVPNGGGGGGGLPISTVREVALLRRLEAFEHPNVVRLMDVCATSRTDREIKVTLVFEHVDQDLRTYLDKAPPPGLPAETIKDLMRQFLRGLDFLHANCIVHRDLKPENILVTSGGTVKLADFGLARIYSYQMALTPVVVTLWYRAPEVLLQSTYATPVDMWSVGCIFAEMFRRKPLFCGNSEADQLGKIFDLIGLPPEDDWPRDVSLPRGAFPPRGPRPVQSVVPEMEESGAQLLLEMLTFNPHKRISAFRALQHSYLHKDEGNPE
Chain of Cyclin-dependent kinase 4/cyclin D1 (P24385 whole entry, further chain): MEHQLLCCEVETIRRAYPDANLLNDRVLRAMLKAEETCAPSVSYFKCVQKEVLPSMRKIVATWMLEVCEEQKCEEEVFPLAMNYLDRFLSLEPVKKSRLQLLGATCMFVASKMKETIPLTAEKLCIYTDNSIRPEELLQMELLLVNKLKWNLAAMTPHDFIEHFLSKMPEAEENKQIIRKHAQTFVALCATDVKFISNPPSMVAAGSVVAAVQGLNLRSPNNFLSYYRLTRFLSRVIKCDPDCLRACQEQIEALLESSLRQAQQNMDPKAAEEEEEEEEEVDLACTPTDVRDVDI

[6] = target: Cyclin-dependent kinase 2/cyclin E1 (Homo sapiens, UniProt P24941); experiment: Inhibition of CDK2/cyclinE (unknown origin); format: protein-complex assay
[7] = target: CDK7/Cyclin H/MNAT1 (Homo sapiens, UniProt P50613); experiment: Inhibition of CDK7/cyclinH/MAT1 (unknown origin); format: protein-complex assay
Chain of CDK7/Cyclin H/MNAT1 (P51946 whole entry): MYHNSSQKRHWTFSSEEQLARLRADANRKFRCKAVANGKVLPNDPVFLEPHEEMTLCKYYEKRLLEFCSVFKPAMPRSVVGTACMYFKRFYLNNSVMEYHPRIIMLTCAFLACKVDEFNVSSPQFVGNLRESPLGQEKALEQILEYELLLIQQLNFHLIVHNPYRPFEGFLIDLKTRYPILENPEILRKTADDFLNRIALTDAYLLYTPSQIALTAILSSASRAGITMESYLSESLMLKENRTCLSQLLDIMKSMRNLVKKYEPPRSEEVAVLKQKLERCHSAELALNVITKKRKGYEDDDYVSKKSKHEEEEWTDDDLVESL
Chain of CDK7/Cyclin H/MNAT1 (P50613 whole entry): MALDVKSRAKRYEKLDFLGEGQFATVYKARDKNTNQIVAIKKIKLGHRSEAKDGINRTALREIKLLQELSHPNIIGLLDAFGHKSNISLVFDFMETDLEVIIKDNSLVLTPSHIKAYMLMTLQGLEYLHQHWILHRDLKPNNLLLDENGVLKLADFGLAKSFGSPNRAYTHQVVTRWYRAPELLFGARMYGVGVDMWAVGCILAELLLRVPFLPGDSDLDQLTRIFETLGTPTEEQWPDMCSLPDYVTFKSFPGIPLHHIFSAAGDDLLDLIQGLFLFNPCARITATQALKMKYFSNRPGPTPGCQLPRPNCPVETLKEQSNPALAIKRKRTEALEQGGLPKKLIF
Chain of CDK7/Cyclin H/MNAT1 (P51948 whole entry, further chain): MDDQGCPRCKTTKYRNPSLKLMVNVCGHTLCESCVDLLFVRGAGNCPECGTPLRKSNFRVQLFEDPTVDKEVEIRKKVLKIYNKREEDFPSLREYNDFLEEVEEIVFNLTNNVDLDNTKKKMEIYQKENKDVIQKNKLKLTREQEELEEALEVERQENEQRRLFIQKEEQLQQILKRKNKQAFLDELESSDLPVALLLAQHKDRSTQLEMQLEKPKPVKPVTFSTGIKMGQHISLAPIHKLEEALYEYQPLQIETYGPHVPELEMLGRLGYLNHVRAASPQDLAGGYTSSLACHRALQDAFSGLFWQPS

[8] = target: CDK9/cyclin T1 (Homo sapiens, UniProt P50750); experiment: Inhibition of CDK9/cyclinT1 (unknown origin); format: protein-complex assay
Chain of CDK9/cyclin T1 (O60563 whole entry): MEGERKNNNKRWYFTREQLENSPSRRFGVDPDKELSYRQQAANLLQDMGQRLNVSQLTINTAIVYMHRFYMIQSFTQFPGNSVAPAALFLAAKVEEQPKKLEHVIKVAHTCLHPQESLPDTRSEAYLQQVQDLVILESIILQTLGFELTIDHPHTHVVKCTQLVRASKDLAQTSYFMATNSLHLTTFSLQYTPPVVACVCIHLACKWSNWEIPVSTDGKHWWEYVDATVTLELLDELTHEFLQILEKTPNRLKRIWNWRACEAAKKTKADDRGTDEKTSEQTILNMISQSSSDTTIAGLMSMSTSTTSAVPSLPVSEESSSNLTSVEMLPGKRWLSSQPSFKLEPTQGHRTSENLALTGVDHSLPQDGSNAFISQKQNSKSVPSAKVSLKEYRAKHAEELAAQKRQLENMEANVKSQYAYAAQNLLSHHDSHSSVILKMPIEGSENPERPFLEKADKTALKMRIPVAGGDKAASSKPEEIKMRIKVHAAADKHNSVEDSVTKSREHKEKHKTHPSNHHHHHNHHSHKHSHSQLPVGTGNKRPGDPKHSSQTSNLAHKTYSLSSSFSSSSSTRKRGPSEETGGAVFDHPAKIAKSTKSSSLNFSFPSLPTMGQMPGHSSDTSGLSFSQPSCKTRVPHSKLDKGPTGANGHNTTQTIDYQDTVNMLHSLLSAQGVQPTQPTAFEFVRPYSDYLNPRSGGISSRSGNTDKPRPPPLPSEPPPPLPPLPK
Chain of CDK9/cyclin T1 (P50750 whole entry): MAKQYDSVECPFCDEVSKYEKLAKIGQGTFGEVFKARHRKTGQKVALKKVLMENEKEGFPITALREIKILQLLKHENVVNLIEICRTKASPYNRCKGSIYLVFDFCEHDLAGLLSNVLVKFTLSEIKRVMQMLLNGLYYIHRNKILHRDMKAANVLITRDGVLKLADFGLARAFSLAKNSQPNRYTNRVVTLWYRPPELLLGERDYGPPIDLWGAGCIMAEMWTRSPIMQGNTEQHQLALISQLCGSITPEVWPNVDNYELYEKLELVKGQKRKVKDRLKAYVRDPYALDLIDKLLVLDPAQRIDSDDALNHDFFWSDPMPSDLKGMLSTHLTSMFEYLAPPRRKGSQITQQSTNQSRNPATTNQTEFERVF

[9] = target: CDK3/Cyclin E (Homo sapiens, UniProt Q00526); experiment: Inhibition of CDK3/cyclinE (unknown origin); format: protein-complex assay
Chain of CDK3/Cyclin E (P24864 whole entry): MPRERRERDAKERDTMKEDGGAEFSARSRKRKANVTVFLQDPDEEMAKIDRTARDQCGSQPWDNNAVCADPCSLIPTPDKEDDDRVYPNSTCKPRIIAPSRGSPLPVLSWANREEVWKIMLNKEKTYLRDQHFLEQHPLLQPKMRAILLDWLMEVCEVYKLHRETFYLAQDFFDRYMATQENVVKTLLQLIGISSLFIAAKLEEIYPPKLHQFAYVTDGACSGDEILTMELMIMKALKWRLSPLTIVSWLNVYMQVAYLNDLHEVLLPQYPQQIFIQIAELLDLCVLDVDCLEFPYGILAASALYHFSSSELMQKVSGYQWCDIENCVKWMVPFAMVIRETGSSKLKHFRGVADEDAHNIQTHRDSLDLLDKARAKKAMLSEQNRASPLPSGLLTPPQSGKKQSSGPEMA
Chain of CDK3/Cyclin E (Q00526 whole entry): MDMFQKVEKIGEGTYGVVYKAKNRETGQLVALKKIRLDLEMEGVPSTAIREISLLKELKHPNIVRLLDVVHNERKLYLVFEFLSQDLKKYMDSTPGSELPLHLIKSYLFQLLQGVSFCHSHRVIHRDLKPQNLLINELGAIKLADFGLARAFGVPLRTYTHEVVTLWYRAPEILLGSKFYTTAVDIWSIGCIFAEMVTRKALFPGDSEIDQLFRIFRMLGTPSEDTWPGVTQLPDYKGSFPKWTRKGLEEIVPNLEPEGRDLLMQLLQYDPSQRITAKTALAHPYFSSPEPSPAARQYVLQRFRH

[10] = target: CDK2/Cyclin A2 (Homo sapiens, UniProt P24941); experiment: Inhibition of CDK2/cyclinA (unknown origin); format: protein-complex assay
[11] = target: Cyclin-dependent kinase 1/cyclin B1 (Homo sapiens, UniProt P06493); experiment: Inhibition of CDK1/cyclinB (unknown origin); format: protein-complex assay
Chain of Cyclin-dependent kinase 1/cyclin B1 (P06493 whole entry): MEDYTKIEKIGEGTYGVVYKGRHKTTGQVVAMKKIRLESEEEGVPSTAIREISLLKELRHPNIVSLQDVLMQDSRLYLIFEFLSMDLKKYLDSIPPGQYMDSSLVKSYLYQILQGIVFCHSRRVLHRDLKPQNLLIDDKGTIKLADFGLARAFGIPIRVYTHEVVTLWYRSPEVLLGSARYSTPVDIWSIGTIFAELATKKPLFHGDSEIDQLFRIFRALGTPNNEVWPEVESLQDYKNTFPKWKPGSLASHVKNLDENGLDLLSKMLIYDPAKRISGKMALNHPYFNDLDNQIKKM
Chain of Cyclin-dependent kinase 1/cyclin B1 (P14635 whole entry, further chain): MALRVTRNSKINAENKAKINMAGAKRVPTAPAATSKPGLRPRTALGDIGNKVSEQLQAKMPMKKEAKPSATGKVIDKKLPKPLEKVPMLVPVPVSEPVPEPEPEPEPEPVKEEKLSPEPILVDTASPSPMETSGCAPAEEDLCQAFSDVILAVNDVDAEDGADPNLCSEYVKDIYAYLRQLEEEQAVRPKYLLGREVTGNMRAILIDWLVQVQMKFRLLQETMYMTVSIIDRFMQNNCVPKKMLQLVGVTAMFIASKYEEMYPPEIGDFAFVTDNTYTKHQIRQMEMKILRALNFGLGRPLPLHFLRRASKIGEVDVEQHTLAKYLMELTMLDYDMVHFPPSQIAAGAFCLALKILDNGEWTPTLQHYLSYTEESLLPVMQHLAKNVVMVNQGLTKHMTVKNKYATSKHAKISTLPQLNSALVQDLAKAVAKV

IC50 [1]: 712 nM
Ratio IC50 [2]: 22.5
IC50 [3]: 159 nM
IC50 [4]: 186 nM
IC50 [5]: 112 nM
IC50 [6]: 367 nM
IC50 [7]: 555 nM
IC50 [8]: 5 nM
IC50 [9]: 399 nM
IC50 [10]: 233 nM
IC50 [11]: 138 nM
SMILES: Nc1nc(N[C@H]2C[C@@H]3CC[C@H]2C3)sc1C(=O)c1ccccc1[N+](=O)[O-]
